According to US8008329B2 (Dong Wha Pharmaceutical Co., Ltd., priority 2008, dated 2011):
Marks after values point to notes of the source that are not given here.

Test system: osteoclast differentiation
Test: Osteoclast differentiation in co-culture of mouse bone marrow cells and ST2 cells, TRAP staining (Examples 8-9)
Assay type: cell-based
Conditions: for % number of osteoclast (vs. solvent control group): 0.1 μM each, day 7; for activity at 0.1 µM: Mus musculus, Osteoclast, 168 h, Individual treatment (compounds), day 7, read-out: % number of osteoclast (vs. solvent control group)
Procedure: The differentiation of osteoclast from mouse bone marrow cells was induced by using co-culture system, and inhibitory effect of the drug on osteoclast differentiation was evaluated by treatment of single or combination formulation. Co-culture was performed using mouse bone marrow cells and ST cells of bone marrow-derived stromal cell.
Femora and tibia were aseptically ectomized from 6˜8 week-old male ddY mice to harvest bone marrow cells by a general method using a syringe. The red blood cells were removed from the bone marrow cells, followed by centrifugation. The bone marrow cells were suspended in α-MEM medium supplemented with 10% fetal bovine serum, and the numbers of the eukaryotic cells in the harvested bone marrow cells were counted and then immediately used for a co-culture system.
ST2 cells (RIKEN Cell Bank, Tsukuba, Japan) were cultured in α-MEM medium supplemented with 10% fetal bovine serum until confluent. Then, these cells were diluted to a desired cell number, and used for the experiment.
The bone marrow cells (1×10^5 cells/well) and ST2 cells (3,000 cells/well) prepared in the above were plated in a 96-well plate using α-MEM medium supplemented with 10% fetal bovine serum. At this time, differentiation factors, 1α,25-dihydroxyvitamin D3 (10^−8 M, hereinbelow, referred to as vitamin D3) and dexamethasone (10^−8 M), were co-added to the medium to induce osteoclast differentiation. The medium was replaced with fresh media containing the differentiation factors every 2 to 3 days.
After 7 days, when multinucleated osteoclasts were observed, the medium was removed from the wells, and then the cells were fixed with PBS containing 10% Formalin. Tartrate-Resistant Acid Phosphatase (hereinbelow, referred to as TRAP) was used as a marker to measure the mature osteoclast in consideration of its characteristics showing a positive reaction to a TRAP staining solution. The TRAP staining solution was prepared in such the manner that a substrate, naphtol AS-MS phosphate and a coloring agent (Fast Red Violet LB salt) were dissolved in N,N-dimethylformamide. A 0.1 N NaHCO3 buffer solution containing 50 mM tartaric acid was added thereto, and the mixture was stored at a refrigerator prior to use as a staining solution. The osteoclasts with 6-7 or more nuclei showing a TRAP-positive reaction were counted under a microscope.
Alendronic acid was dissolved in distilled water at a concentration of 0.1 mM, and benzamidine derivatives were dissolved in DMSO at a concentration of 0.1 mM. All of them were diluted 1,000 fold with the differentiation media to a final concentration of 0.1 μM, respectively. In this connection, a control group was maintained in 0.1% DMSO.
As the above described, the sample substances and cells, which were diluted to the desired concentrations, were plated in 96-well plate, and co-cultured. On days 3 and 5 of culture, the media were replaced with fresh differentiation media containing the sample substances. On day 7 of culture, TRAP staining was performed to count the mature multinucleated osteoclast that was formed by differentiation. The mature osteoclasts with 6 or more nuclei were counted under a microscope. The results were expressed as a percentage (%) of the number of mature osteoclast observed in each experimental group, when the number of mature osteoclast in the control group (solvent only) was regarded as 100%. The experiment was performed with 4 wells per experimental group (n=4), and the results were expressed as mean value±standard deviation. In addition, the experiment was repeated at least two times, and Student t-test was applied for significant difference between experimental groups.
The experiment was performed in the same manner as in Example 8 to evaluate the effect of individual or combination treatment of risedronic acid and benzamidine derivatives of Formula 1 on osteoclast differentiation, except using 0.1 μM risedronic acid instead of 0.1 μM alendronic acid. […]

[1] = Combination treatment (alendronic acid + compounds)
[2] = Combination treatment (risedronic acid + compounds)

COCc1sc(C)nc1-c1ccc(OCCCCCOc2ccc(C(=N)NO)cc2)cc1 [Compound 76, N-hydroxy-4-{5-[4-(5-methoxymethyl-2-methyl-1,3-thiazol-4-yl)phenoxy]pentyloxy}-benzamidine]
% number of osteoclast (vs. solvent control group) [1]: 31 ± 6.8^ab % | % number of osteoclast (vs. solvent control group) [2]: 22 ± 3.8^a % | activity at 0.1 µM: 53 ± 6.5%

Cc1nc(-c2ccc(OCCCCCOc3ccc(C(=N)NO)cc3)cc2)c(CNCc2ccccc2)s1 [Compound 306, N-hydroxy-4-(5-{4-[5-(benzylamino-methyl)-2-methyl-thiazol-4-yl]-phenoxy}-pentyloxy)-benzamidine]
% number of osteoclast (vs. solvent control group) [1]: 18 ± 4.3^ab % | % number of osteoclast (vs. solvent control group) [2]: 16 ± 3.3^ac % | activity at 0.1 µM: 48 ± 6.4%

CCCNCc1sc(C)nc1-c1ccc(OCCCCCOc2ccc(C(=N)NO)cc2)cc1 [Compound 301, N-hydroxy-4-{5-[4-(2-methyl-5-propylaminomethyl-thiazol-4-yl)-phenoxy]-pentyloxy}-benzamidine]
% number of osteoclast (vs. solvent control group) [1]: 10 ± 2.3^ab % | % number of osteoclast (vs. solvent control group) [2]: 6 ± 2.3^ac % | activity at 0.1 µM: 49 ± 5.1%

Cc1nc(-c2ccc(OCCCCCOc3ccc(C(=N)NO)cc3)cc2)c(CCNC(C)(C)C)s1 [Compound 234, N-hydroxy-4-(5-{4-[5-(2-tert-butylamino-ethyl)-2-methyl-thiazol-4-yl]-phenoxy}-pentyloxy)-benzamidine]
% number of osteoclast (vs. solvent control group) [1]: 30 ± 6.1^b % | % number of osteoclast (vs. solvent control group) [2]: 22 ± 4.0^ac % | activity at 0.1 µM: 44 ± 7.5%

N=C(NO)c1ccc(OCCCCCOc2ccc(-c3nc(-c4cccnc4)sc3CCCl)cc2)cc1 [Compound 80, N-hydroxy-4-{5-[4-(5-(2-chloroethyl)-2-(pyridin-3-yl)-1,3-thiazol-4-yl)phenoxy]pentyloxy}-benzamidine]
% number of osteoclast (vs. solvent control group) [1]: 42 ± 9.9^b % | % number of osteoclast (vs. solvent control group) [2]: 38 ± 3.7^ac % | activity at 0.1 µM: 65 ± 1.4%

CCN(CC)c1nc(-c2ccc(OCCCCCOc3ccc(C(=N)NO)cc3)cc2)c(CCN2CCOCC2)s1 [Compound 270, N-hydroxy-4-(5-{4-[2-diethylamino-5-(2-morpholin-4-yl-ethyl)-thiazol-4-yl]-phenoxy}-pentyloxy)-benzamidine]
% number of osteoclast (vs. solvent control group) [1]: 28 ± 4.5^b % | % number of osteoclast (vs. solvent control group) [2]: 14 ± 2.1^ac % | activity at 0.1 µM: 45 ± 6.9%

Cc1nc(-c2ccc(OCCCCCOc3ccc(C(=N)NO)cc3)cc2)c(N2CCOCC2)s1 [Compound 286, N-hydroxy-4-{5-[4-(2-methyl-5-morpholin-4-yl-thiazol-4-yl)-phenoxy]-pentyloxy}-benzamidine]
% number of osteoclast (vs. solvent control group) [1]: 29 ± 4.1^b % | % number of osteoclast (vs. solvent control group) [2]: 26 ± 1.5^ac % | activity at 0.1 µM: 43 ± 6.1%

CCN(C)c1nc(-c2ccc(OCCCCCOc3ccc(C(=N)NO)cc3)cc2)c(CN2CCOCC2)s1 [Compound 311, N-hydroxy-4-(5-{4-[2-(ethyl-methyl-amino)-5-morpholin-4-ylmethyl-thiazol-4-yl]-phenoxy}-pentyloxy)-benzamidine]
% number of osteoclast (vs. solvent control group) [1]: 21 ± 4.2^b % | % number of osteoclast (vs. solvent control group) [2]: 12 ± 5.8^ac % | activity at 0.1 µM: 46 ± 10.7%

Cc1sc(N2CCOCC2)nc1-c1ccc(OCCCCCOc2ccc(C(=N)NO)cc2)cc1 [Compound 165, N-hydroxy-4-{5-[4-(5-methyl-2-morpholino-1,3-thiazol-4-yl)phenoxy]pentyloxy}-benzamidine]
% number of osteoclast (vs. solvent control group) [1]: 29 ± 7.5^ab % | % number of osteoclast (vs. solvent control group) [2]: 30 ± 3.1^ac % | activity at 0.1 µM: 75 ± 3.8%

N=C(NO)c1ccc(OCCCCCOc2ccc(-c3nc(N4CCCCC4)sc3CC3CCCC3)cc2)cc1 [Compound 167, N-hydroxy-4-{5-[4-(5-cyclopentylmethyl-2-piperidino-1,3-thiazol-4-yl)phenoxy]pentyloxy}-benzamidine]
% number of osteoclast (vs. solvent control group) [1]: 25 ± 1.9^b % | % number of osteoclast (vs. solvent control group) [2]: 31 ± 7.6^ac % | activity at 0.1 µM: 72 ± 9.8%
